From ChEMBL document CHEMBL3885861, “Open TG-GATES”

Organism: Rattus norvegicus
Assay: Open TG-GATES - Regimen: Single
Assay type: toxicity, organism-based, Sprague-Dawley
Set-up: regimen Single, gender Male, age 6 weeks
Conditions: in vivo, ip, 40 mg/kg, route intraperitoneal injection, dose level Low; for APTT / Bas / Eos / Fbg / Hb / Ht / Lym / MCH / MCHC / MCV / Mono / Neu / PT / Plat / RBC / Ret / WBC: tissue Blood; for KIDNEY_L / KIDNEY_R / KIDNEY_TOTAL: tissue Kidney; for LIVER: tissue Liver; for A/G / ALP / ALT / AST / BUN / CRE / Ca / Cl / DBIL / GLC / IP / K / LDH / Na / PL / RALB / TBIL / TC / TG / TP / gamma-GTP: tissue Plasma

CC(C)=CC(=O)C=C(C)C [PHORONE]
TERMINAL_BW (3 h): 219.9 g
APTT (3 h): 16.7 s
Bas (3 h): 0%
Eos (3 h): 0.8%
Fbg (3 h): 211 mg/dL
Hb (3 h): 13.1 g/dL
Ht (3 h): 39.1%
Lym (3 h): 69.8%
MCH (3 h): 21.6 pg
MCHC (3 h): 33.5%
MCV (3 h): 64.4 fL
Mono (3 h): 8.4%
Neu (3 h): 21.2%
PT (3 h): 12.2 s
Plat (3 h): 112.1 x10_4/uL
RBC (3 h): 608 x10_4/ul
Ret (3 h): 9.2%
WBC (3 h): 105.8 x10_2/uL
KIDNEY_L (3 h): 1 g
KIDNEY_R (3 h): 1 g
KIDNEY_TOTAL (3 h): 2 g
LIVER (3 h): 10.5 g
A/G (3 h): 2.3
ALP (3 h): 735.6 IU/L
ALT (3 h): 36.4 IU/L
AST (3 h): 78.6 IU/L
BUN (3 h): 14.8 mg/dL
CRE (3 h): 0.6 mg/dL
Ca (3 h): 10.6 mg/dL
Cl (3 h): 106 meq/L
DBIL (3 h): 0.034 mg/dL
GLC (3 h): 193.6 mg/dL
IP (3 h): 10.3 mg/dL
K (3 h): 4.8 meq/L
LDH (3 h): 83.8 IU/L
Na (3 h): 139 meq/L
PL (3 h): 133.6 mg/dL
RALB (3 h): 3.6 g/dL
TBIL (3 h): 0.4 mg/dL
TC (3 h): 75.4 mg/dL
TG (3 h): 46 mg/dL
TP (3 h): 5.2 g/dL
gamma-GTP (3 h): 2.4 IU/L
TERMINAL_BW (6 h): 219.1 g
APTT (6 h): 17.2 s
Bas (6 h): 0%
Eos (6 h): 0.6%
Fbg (6 h): 216.8 mg/dL
Hb (6 h): 13.5 g/dL
Ht (6 h): 40.3%
Lym (6 h): 66.2%
MCH (6 h): 21.6 pg
MCHC (6 h): 33.4%
MCV (6 h): 64.8 fL
Mono (6 h): 6.6%
Neu (6 h): 26.8%
PT (6 h): 12.3 s
Plat (6 h): 114.9 x10_4/uL
RBC (6 h): 621.6 x10_4/ul
Ret (6 h): 9%
WBC (6 h): 90 x10_2/uL
KIDNEY_L (6 h): 1 g
KIDNEY_R (6 h): 1 g
KIDNEY_TOTAL (6 h): 2.1 g
LIVER (6 h): 9.8 g
A/G (6 h): 2.2
ALP (6 h): 814.6 IU/L
ALT (6 h): 36.2 IU/L
AST (6 h): 70.8 IU/L
BUN (6 h): 13.8 mg/dL
CRE (6 h): 0.5 mg/dL
Ca (6 h): 10.8 mg/dL
Cl (6 h): 105 meq/L
DBIL (6 h): 0.048 mg/dL
GLC (6 h): 193.4 mg/dL
IP (6 h): 10.1 mg/dL
K (6 h): 4.9 meq/L
LDH (6 h): 76 IU/L
Na (6 h): 138.2 meq/L
PL (6 h): 126.4 mg/dL
RALB (6 h): 3.6 g/dL
TBIL (6 h): 0.5 mg/dL
TC (6 h): 72.2 mg/dL
TG (6 h): 36.6 mg/dL
TP (6 h): 5.3 g/dL
gamma-GTP (6 h): 1.6 IU/L
TERMINAL_BW (9 h): 220.4 g
APTT (9 h): 17.1 s
Bas (9 h): 0%
Eos (9 h): 1%
Fbg (9 h): 246.6 mg/dL
Hb (9 h): 13.2 g/dL
Ht (9 h): 39.8%
Lym (9 h): 63.8%
MCH (9 h): 21.8 pg
MCHC (9 h): 33.3%
MCV (9 h): 65.5 fL
Mono (9 h): 8.6%
Neu (9 h): 26.6%
PT (9 h): 12.1 s
Plat (9 h): 115.4 x10_4/uL
RBC (9 h): 609 x10_4/ul
Ret (9 h): 9.4%
WBC (9 h): 96.2 x10_2/uL
KIDNEY_L (9 h): 1 g
KIDNEY_R (9 h): 1 g
KIDNEY_TOTAL (9 h): 2 g
LIVER (9 h): 9.5 g
A/G (9 h): 2
ALP (9 h): 839.8 IU/L
ALT (9 h): 33.2 IU/L
AST (9 h): 69 IU/L
BUN (9 h): 13.8 mg/dL
CRE (9 h): 0.5 mg/dL
Ca (9 h): 10.8 mg/dL
Cl (9 h): 106.6 meq/L
DBIL (9 h): 0.04 mg/dL
GLC (9 h): 204.2 mg/dL
IP (9 h): 10 mg/dL
K (9 h): 4.7 meq/L
LDH (9 h): 91.4 IU/L
Na (9 h): 138.8 meq/L
PL (9 h): 131.8 mg/dL
RALB (9 h): 3.6 g/dL
TBIL (9 h): 0.4 mg/dL
TC (9 h): 77.6 mg/dL
TG (9 h): 54 mg/dL
TP (9 h): 5.4 g/dL
gamma-GTP (9 h): 1.8 IU/L
TERMINAL_BW (24 h): 231.5 g
APTT (24 h): 16.9 s
Bas (24 h): 0%
Eos (24 h): 0.8%
Fbg (24 h): 231.2 mg/dL
Hb (24 h): 12.9 g/dL
Ht (24 h): 38.5%
Lym (24 h): 77.8%
MCH (24 h): 22 pg
MCHC (24 h): 33.6%
MCV (24 h): 65.4 fL
Mono (24 h): 5.6%
Neu (24 h): 16%
PT (24 h): 11.5 s
Plat (24 h): 113 x10_4/uL
RBC (24 h): 589.8 x10_4/ul
Ret (24 h): 8.8%
WBC (24 h): 87.7 x10_2/uL
KIDNEY_L (24 h): 1 g
KIDNEY_R (24 h): 1 g
KIDNEY_TOTAL (24 h): 2 g
LIVER (24 h): 11.8 g
A/G (24 h): 2
ALP (24 h): 774.8 IU/L
ALT (24 h): 34 IU/L
AST (24 h): 65 IU/L
BUN (24 h): 19.2 mg/dL
CRE (24 h): 0.5 mg/dL
Ca (24 h): 11 mg/dL
Cl (24 h): 104.4 meq/L
DBIL (24 h): 0.028 mg/dL
GLC (24 h): 197.2 mg/dL
IP (24 h): 8.3 mg/dL
K (24 h): 4.7 meq/L
LDH (24 h): 87.6 IU/L
Na (24 h): 139 meq/L
PL (24 h): 156 mg/dL
RALB (24 h): 3.8 g/dL
TBIL (24 h): 0.4 mg/dL
TC (24 h): 81.8 mg/dL
TG (24 h): 118.2 mg/dL
TP (24 h): 5.7 g/dL
gamma-GTP (24 h): 0.6 IU/L
